The values that follow are results of earlier work, collected in US8097593B1, “Lipid A and other carbohydrate ligand analogs” (Oncothyreon Inc., priority 2002, dated 2012).

Assay in data set [1]: not given
The source holds these as a separate data set.

Consider `CC(C)(C)C` [CC(C)(C)C, 2,2-dimethylpropane], for which the “experimental log P” value was 3.11.

monophosphoryl Lipid-A: the “immunostimulating activities, in words” value in data set [1] (compared with diphosphoryl Lipid-A (and endotoxin itself)) is given as “comparable”. Also, the “times less potent in eliciting toxic and pyrogenic responses” value in data set [1] (on a molar basis) is 1000 times.
